In patent US20260262643A1, “HERBICIDAL BENZOXAZINES” (FMC CORPORATION, priority 2022, published 2026):

Key:
foxtail, giant [1] = experiment: Test C postemergence; assay type: in vivo, Setaria faberi; conditions: Postemergence, 1000 g ai/ha
Procedure, shortened: (§1)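 Soil-applied (pre) and foliar (post, 1–2 leaf, 2–10 cm) sprays; surfactant-containing non-phytotoxic solvent vehicle; loam/sand substrate. Readout: visual % control at 10 d, greenhouse, versus untreated.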

galium = experiment: Test C postemergence; assay type: in vivo, Galium aparine; conditions: Postemergence, 1000 g ai/ha
Procedure, shortened: as §1

Pigweed, Redroot [2] = experiment: Test C postemergence; assay type: in vivo, Amaranthus retroflexus; conditions: 1000 g ai/ha
From the text: (§2) Seeds of plant species selected from barnyardgrass (Echinochloa crusgalli), blackgrass (Alopecurus myosuroides), corn (Zea mays), foxtail, giant (giant foxtail, Setaria faberi), green foxtail (Setaria viridis), goosegrass (Eleusine indica), kochia (Bassia scoparia), oat, wild (wild oat, Avena fatua), pigweed, palmer (palmer amaranth, palmer pigweed, Amaranthus palmeri), Pigweed, Redroot (redroot pigweed, Amaranthus retroflexus), ragweed (common ragweed, Ambrosia artemisiifolia), ryegrass, Italian ([…] ryegrass, Lolium multiflorum), soybean (Glycine max), and wheat (Triticum aestivum) were planted into a blend of loam soil and sand and treated preemergence with a directed soil spray using test chemicals formulated in a non-phytotoxic solvent mixture which included a surfactant. At the same time, plants selected from these crops and weed species and also galium (catchweed bedstraw, Galium aparine) and horseweed (Erigeron canadensis) were planted in pots containing the same blend of loam soil and sand and treated with postemergence applications of test chemicals formulated in the same manner. Plants ranged in height from 2 to 10 cm and were in the one- to two-leaf stage for the postemergence treatment. Treated plants and untreated controls were maintained in a greenhouse for 10 days, after which time all treated plants were compared to untreated controls and visually evaluated for injury. Plant response ratings, summarized in Table C, are based on a 0 to 100 scale where 0 is no effect and 100 is complete control. A dash (-) response means no test result.

barnyardgrass [3] = experiment: Test C postemergence; assay type: in vivo, Echinochloa crusgalli; conditions: Postemergence, 1000 g ai/ha
Procedure, shortened: as §1

foxtail, giant [4] = experiment: Test C preemergence; assay type: in vivo, Setaria faberi; conditions: Preemergence, 1000 g ai/ha; visual rating after 10 days, 0 to 100 scale (0 no effect, 100 complete control)
Procedure, shortened: as §1

ragweed [5] = experiment: Test C preemergence; assay type: in vivo, Ambrosia artemisiifolia; conditions: Preemergence, 1000 g ai/ha; visual rating after 10 days, 0 to 100 scale (0 no effect, 100 complete control)
Procedure, shortened: as §1

barnyardgrass [6] = experiment: Test C preemergence; assay type: in vivo, Echinochloa crusgalli; conditions: Preemergence, 1000 g ai/ha; visual rating after 10 days, 0 to 100 scale (0 no effect, 100 complete control)
Procedure, shortened: as §1

ryegrass, Italian [7] = experiment: Test C postemergence; assay type: in vivo, Lolium multiflorum; conditions: Postemergence, 1000 g ai/ha
Procedure, shortened: as §1

kochia [8] = experiment: Test C postemergence; assay type: in vivo, Bassia scoparia; conditions: Postemergence, 1000 g ai/ha
Procedure, shortened: as §1

Pigweed, Redroot [9] = experiment: Test C preemergence; assay type: in vivo, Amaranthus retroflexus; conditions: 1000 g ai/ha, visual rating after 10 days, 0 to 100 scale (0 no effect, 100 complete control)
From the text: as §2

blackgrass = experiment: Test C postemergence; assay type: in vivo, Alopecurus myosuroides; conditions: Postemergence, 1000 g ai/ha
Procedure, shortened: as §1

kochia [10] = experiment: Test C preemergence; assay type: in vivo, Bassia scoparia; conditions: Preemergence, 1000 g ai/ha; visual rating after 10 days, 0 to 100 scale (0 no effect, 100 complete control)
Procedure, shortened: as §1

corn = experiment: Test C postemergence; assay type: in vivo, Zea mays; conditions: Postemergence, 1000 g ai/ha
Procedure, shortened: as §1

ryegrass, Italian [11] = experiment: Test C preemergence; assay type: in vivo, Lolium multiflorum; conditions: Preemergence, 1000 g ai/ha; visual rating after 10 days, 0 to 100 scale (0 no effect, 100 complete control)
Procedure, shortened: as §1

wheat = experiment: Test C postemergence; assay type: in vivo, Triticum aestivum; conditions: Postemergence, 1000 g ai/ha
Procedure, shortened: as §1

ragweed [12] = experiment: Test C postemergence; assay type: in vivo, Ambrosia artemisiifolia; conditions: Postemergence, 1000 g ai/ha
Procedure, shortened: as §1

[13] = 0 to 100 scale, 0 no effect, 100 complete control
[14] = 10 days, visual 0 to 100 scale (0 no effect, 100 complete control)

With `CC1CN(C(=O)c2ccnc(-n3ccnc3)c2)c2cccc(Cl)c2O1` (stereo not drawn) [Compound 197] the “Plant response rating, Foxtail, Giant” value (foxtail, giant [1]; [13]) was 0, the “Plant response rating, Galium” value (galium; [13]) was 30 and the “Plant response rating, Pigweed, Redroot” value (Pigweed, Redroot [2]; [13]) was 50. For the same compound, the “Plant response rating, Barnyardgrass” value (barnyardgrass [3]; [13]) was 0, the “Plant response rating, Foxtail, Giant” value (foxtail, giant [4]) was 30 and the “Plant response rating, Ragweed” value (ragweed [5]) was 0. The “Plant response rating, Barnyardgrass” value (barnyardgrass [6]) was 0, the “Plant response rating, Ryegrass, Italian” value (ryegrass, Italian [7]; [13]) was 0 and the “Plant response rating, Kochia” value (kochia [8]; [13]) was 10. For the same compound, the “Plant response rating, Pigweed, Redroot” value (Pigweed, Redroot [9]) was 30, the “Plant response rating, Blackgrass” value (blackgrass; [13]) was 0 and the “Plant response rating, Kochia” value (kochia [10]) was 0. The “Plant response rating, Corn” value (corn; [13]) was 0, the “Plant response rating, Ryegrass, Italian” value (ryegrass, Italian [11]) was 0 and the “Plant response rating, Wheat” value (wheat; [13]) was 0. For the same compound, the “Plant response rating, Ragweed” value (ragweed [12]; [13]) was 0.

With `C[C@H]1CN(C(=O)c2cccc(-n3ccnn3)c2)c2cccc(Cl)c2O1` [Compound 199] the “Plant response rating, Foxtail, Giant” value (foxtail, giant [1]; [13]) was 20, the “Plant response rating, Galium” value (galium; [13]) was 20 and the “Plant response rating, Pigweed, Redroot” value (Pigweed, Redroot [2]; [13]) was 40. For the same compound, the “Plant response rating, Barnyardgrass” value (barnyardgrass [3]; [13]) was 30, the “Plant response rating, Foxtail, Giant” value (foxtail, giant [4]) was 50 and the “Plant response rating, Ragweed” value (ragweed [5]) was 0. The “Plant response rating, Barnyardgrass” value (barnyardgrass [6]) was 0, the “Plant response rating, Ryegrass, Italian” value (ryegrass, Italian [7]; [13]) was 40 and the “Plant response rating, Kochia” value (kochia [8]; [13]) was 10. The “Plant response rating, Pigweed, Redroot” value (Pigweed, Redroot [9]) was 20, the “Plant response rating, Blackgrass” value (blackgrass; [13]) was 20 and the “Plant response rating, Kochia” value (kochia [10]) was 0. For the same compound, the “Plant response rating, Corn” value (corn; [13]) was 10, the “Plant response rating, Ryegrass, Italian” value (ryegrass, Italian [11]) was 30 and the “Plant response rating, Wheat” value (wheat; [13]) was 0. The “Plant response rating, Ragweed” value (ragweed [12]; [13]) was 0.

`C[C@H]1CN(C(=O)c2cccc(-c3ccncn3)c2)c2cccc(Cl)c2O1` [Compound 287] was tested, and the “Plant response rating, Foxtail, Giant” value (foxtail, giant [1]; [14]) was 10, the “Plant response rating, Galium” value (galium; [14]) was 20 and the “Plant response rating, Pigweed, Redroot” value (Pigweed, Redroot [2]; [14]) was 20. The “Plant response rating, Barnyardgrass” value (barnyardgrass [3]; [14]) was 20, the “Plant response rating, Foxtail, Giant” value (foxtail, giant [4]) was 0 and the “Plant response rating, Ragweed” value (ragweed [5]) was 0. For the same compound, the “Plant response rating, Barnyardgrass” value (barnyardgrass [6]) was 60, the “Plant response rating, Ryegrass, Italian” value (ryegrass, Italian [7]; [14]) was 0 and the “Plant response rating, Kochia” value (kochia [8]; [14]) was 10. The “Plant response rating, Pigweed, Redroot” value (Pigweed, Redroot [9]) was 0, the “Plant response rating, Blackgrass” value (blackgrass; [14]) was 0 and the “Plant response rating, Kochia” value (kochia [10]) was 30. For the same compound, the “Plant response rating, Corn” value (corn; [14]) was 0, the “Plant response rating, Ryegrass, Italian” value (ryegrass, Italian [11]) was 20 and the “Plant response rating, Wheat” value (wheat; [14]) was 0. The “Plant response rating, Ragweed” value (ragweed [12]; [14]) was 0.
